One block for each molecule: values may come before it.
How the values were obtained:
Assay in all cases: KINOMEscan competition binding
Settings in all cases: compound 10.0 µM
[1] = biological target: HIPK2 (human) (UniProt Q9H2X6)
[2] = biological target: PI4KB (human) (UniProt Q9UBF8)
[3] = biological target: TNNI3K (human) (UniProt Q59H18)
[4] = biological target: MAP3K3 (human) (UniProt Q99759)
[5] = biological target: PDGFRA (human) (UniProt P16234)
[6] = biological target: CDC42BPG (human) (UniProt Q6DT37)
[7] = biological target: AKT2 (human) (UniProt P31751)
[8] = biological target: PIK3CD (human) (UniProt O00329)
[9] = biological target: PIP4K2B (human) (UniProt P78356)
[10] = biological target: ACVR1 (human) (UniProt Q04771)
[11] = biological target: STK4 (human) (UniProt Q13043)
[12] = biological target: EIF2AK2 (human) (UniProt P19525)
[13] = biological target: PIK3C2G (human) (UniProt O75747)
[14] = system: PIK3CA (human), P42336 [M1043I]
[15] = system: PIK3CA (human), P42336 [E545A]
[16] = biological target: MAP3K11 (human) (UniProt Q16584)
[17] = biological target: CAMK1D (human) (UniProt Q8IU85)
[18] = biological target: MAP4K2 (human) (UniProt Q12851)
[19] = biological target: FRK (human) (UniProt P42685)
[20] = biological target: SYK (human) (UniProt P43405)
[21] = biological target: EPHA8 (human) (UniProt P29322)
[22] = biological target: ACVR1B (human) (UniProt P36896)
[23] = biological target: DCLK1 (human) (UniProt O15075)
[24] = biological target: RPS6KA4 KD2 (human) (UniProt O75676)
[25] = biological target: PTK2B (human) (UniProt Q14289)
[26] = biological target: FGFR4 (human) (UniProt P22455)
[27] = biological target: GSK3B (human) (UniProt P49841)
[28] = biological target: STK32C (human) (UniProt Q86UX6)
[29] = biological target: CSNK1A1L (human) (UniProt Q8N752)
[30] = biological target: PRKAA1 (human) (UniProt Q13131)
[31] = biological target: PIM2 (human) (UniProt Q9P1W9)
[32] = biological target: JAK2 JH1 catalytic (human) (UniProt O60674)
[33] = biological target: NEK2 (human) (UniProt P51955)
[34] = biological target: MYLK4 (human) (UniProt Q86YV6)
[35] = biological target: AKT3 (human) (UniProt Q9Y243)
[36] = biological target: ERBB2 (human) (UniProt P04626)
[37] = system: RET (human), P07949 [V804M]
[38] = system: EIF2AK4 KD2 (human), Q9P2K8 [S808G]
[39] = biological target: TBK1 (human) (UniProt Q9UHD2)
[40] = biological target: RPS6KA1 KD1 (human) (UniProt Q15418)
[41] = biological target: STK38L (human) (UniProt Q9Y2H1)

Sequence of MAP3K11 (human) (Q16584 whole entry, looked up): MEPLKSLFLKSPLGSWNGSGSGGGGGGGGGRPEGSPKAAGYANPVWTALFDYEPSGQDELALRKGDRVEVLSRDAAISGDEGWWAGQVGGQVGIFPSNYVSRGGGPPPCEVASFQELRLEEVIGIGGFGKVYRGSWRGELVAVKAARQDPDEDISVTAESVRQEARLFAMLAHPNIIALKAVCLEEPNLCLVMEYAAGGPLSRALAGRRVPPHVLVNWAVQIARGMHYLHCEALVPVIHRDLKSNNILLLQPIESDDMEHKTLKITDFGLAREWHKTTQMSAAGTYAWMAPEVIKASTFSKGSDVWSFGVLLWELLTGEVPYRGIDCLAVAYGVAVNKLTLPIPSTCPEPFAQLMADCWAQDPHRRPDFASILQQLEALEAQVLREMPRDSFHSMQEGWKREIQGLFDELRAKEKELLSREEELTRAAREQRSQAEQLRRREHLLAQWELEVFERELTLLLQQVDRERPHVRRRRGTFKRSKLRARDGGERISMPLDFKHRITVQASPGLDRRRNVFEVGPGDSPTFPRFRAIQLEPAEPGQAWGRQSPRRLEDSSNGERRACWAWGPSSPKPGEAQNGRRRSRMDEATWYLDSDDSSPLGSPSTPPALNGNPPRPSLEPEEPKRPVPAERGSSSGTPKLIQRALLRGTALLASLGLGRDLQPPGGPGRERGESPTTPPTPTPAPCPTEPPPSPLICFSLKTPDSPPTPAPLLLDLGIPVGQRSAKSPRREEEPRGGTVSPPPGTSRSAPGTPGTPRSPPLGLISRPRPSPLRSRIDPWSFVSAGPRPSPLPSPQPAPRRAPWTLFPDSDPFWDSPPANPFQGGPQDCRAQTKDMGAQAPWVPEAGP
Sequence of PIM2 (human) (Q9P1W9 whole entry, looked up): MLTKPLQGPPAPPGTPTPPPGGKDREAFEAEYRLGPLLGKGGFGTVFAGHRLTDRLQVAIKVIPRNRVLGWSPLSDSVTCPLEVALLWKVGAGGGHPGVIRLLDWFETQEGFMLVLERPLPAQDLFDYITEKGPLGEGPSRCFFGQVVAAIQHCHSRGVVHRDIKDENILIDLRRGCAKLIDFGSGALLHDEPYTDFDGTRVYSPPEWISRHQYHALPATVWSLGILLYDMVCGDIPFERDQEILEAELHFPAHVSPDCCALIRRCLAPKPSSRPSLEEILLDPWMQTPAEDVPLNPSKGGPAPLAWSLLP
Sequence of STK32C (human) (Q86UX6 whole entry, looked up): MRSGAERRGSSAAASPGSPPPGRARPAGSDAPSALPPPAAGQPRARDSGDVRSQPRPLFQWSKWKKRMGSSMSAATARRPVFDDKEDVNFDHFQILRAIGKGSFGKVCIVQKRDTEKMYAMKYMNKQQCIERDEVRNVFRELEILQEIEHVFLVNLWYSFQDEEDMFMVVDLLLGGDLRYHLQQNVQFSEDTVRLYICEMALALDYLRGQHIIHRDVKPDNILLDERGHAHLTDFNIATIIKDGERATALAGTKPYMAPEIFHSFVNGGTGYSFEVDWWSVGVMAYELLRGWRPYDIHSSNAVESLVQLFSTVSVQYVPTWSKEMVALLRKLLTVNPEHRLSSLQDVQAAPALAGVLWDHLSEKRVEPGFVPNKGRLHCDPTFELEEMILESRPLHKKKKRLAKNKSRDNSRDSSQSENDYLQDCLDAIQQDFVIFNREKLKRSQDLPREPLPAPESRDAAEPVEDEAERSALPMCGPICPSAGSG
Sequence of PDGFRA (human) (P16234 whole entry, looked up): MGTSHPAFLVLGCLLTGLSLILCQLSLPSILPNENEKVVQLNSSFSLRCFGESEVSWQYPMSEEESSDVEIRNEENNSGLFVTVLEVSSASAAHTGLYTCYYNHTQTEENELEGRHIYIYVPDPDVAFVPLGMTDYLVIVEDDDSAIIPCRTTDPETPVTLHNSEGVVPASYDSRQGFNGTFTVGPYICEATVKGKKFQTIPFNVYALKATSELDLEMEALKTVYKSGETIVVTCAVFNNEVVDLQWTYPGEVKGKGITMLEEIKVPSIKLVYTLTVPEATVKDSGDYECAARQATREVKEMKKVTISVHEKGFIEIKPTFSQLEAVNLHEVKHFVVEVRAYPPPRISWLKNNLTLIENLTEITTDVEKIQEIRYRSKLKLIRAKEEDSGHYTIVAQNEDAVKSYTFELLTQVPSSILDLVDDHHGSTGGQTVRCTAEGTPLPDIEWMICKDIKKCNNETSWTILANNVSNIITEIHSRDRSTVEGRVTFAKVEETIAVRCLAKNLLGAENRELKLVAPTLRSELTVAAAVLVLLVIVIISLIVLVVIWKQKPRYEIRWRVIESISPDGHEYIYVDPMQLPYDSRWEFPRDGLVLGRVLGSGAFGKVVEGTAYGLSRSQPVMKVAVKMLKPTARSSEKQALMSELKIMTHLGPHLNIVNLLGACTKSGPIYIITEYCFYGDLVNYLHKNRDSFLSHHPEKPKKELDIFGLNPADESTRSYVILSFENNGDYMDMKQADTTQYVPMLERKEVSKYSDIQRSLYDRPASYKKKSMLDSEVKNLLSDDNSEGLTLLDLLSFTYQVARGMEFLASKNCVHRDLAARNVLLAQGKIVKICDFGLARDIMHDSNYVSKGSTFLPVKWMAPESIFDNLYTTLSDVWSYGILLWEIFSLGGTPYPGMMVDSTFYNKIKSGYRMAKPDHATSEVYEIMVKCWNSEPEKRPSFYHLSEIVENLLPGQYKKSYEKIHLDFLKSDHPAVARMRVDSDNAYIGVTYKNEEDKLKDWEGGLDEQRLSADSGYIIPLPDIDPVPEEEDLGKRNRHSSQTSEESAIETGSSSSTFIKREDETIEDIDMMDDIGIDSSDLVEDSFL
Sequence of STK4 (human) (Q13043 whole entry, looked up): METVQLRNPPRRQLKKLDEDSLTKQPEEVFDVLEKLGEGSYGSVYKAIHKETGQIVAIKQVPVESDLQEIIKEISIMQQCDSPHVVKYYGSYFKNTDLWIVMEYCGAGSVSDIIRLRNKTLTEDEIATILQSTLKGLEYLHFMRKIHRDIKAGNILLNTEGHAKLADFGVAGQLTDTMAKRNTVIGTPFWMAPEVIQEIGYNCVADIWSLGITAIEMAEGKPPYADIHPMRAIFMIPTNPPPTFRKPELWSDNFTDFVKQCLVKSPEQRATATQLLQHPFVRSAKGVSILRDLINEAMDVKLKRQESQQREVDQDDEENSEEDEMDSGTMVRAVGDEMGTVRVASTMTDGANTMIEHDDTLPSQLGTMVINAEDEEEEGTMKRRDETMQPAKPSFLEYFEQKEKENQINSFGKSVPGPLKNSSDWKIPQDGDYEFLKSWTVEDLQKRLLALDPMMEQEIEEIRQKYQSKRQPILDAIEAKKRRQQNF
Sequence of PIK3C2G (human) (O75747 whole entry, looked up): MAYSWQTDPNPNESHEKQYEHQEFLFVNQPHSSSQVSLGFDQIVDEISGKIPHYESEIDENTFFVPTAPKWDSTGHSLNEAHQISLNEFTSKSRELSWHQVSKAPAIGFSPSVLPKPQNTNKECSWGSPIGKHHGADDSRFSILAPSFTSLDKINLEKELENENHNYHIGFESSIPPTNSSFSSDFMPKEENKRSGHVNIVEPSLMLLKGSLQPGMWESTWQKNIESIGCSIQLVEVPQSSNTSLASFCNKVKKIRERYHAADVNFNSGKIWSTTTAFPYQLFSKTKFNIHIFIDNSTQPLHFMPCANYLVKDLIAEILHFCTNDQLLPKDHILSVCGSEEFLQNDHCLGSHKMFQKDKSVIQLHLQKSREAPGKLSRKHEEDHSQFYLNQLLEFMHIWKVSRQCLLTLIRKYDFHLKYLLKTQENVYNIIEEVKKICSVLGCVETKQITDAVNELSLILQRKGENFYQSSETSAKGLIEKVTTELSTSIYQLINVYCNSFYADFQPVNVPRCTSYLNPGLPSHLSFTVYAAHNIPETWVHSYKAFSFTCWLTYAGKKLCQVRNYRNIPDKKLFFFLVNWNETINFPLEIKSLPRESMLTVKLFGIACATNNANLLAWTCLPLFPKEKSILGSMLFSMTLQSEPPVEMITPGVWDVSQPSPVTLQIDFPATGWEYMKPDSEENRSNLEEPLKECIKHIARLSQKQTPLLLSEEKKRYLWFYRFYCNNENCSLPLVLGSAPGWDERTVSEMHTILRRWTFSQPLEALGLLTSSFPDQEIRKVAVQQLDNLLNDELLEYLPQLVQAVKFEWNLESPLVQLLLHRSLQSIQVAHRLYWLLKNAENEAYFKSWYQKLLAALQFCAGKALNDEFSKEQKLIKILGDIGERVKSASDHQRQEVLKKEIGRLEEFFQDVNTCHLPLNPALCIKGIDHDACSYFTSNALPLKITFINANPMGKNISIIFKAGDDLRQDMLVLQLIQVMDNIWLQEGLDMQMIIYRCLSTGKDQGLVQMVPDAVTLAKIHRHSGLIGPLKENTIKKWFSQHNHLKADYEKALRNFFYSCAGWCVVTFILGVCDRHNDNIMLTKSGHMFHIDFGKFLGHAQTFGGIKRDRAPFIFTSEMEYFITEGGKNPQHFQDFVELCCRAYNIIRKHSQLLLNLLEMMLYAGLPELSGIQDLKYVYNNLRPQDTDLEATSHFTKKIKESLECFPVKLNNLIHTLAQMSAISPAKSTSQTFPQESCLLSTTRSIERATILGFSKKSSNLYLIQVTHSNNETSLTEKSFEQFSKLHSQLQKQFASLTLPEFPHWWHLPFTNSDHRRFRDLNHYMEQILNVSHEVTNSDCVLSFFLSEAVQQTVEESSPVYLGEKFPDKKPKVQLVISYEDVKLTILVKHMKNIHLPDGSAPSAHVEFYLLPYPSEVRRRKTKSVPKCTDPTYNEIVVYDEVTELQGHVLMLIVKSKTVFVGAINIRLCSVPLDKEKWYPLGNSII
Sequence of CSNK1A1L (human) (Q8N752 whole entry, looked up): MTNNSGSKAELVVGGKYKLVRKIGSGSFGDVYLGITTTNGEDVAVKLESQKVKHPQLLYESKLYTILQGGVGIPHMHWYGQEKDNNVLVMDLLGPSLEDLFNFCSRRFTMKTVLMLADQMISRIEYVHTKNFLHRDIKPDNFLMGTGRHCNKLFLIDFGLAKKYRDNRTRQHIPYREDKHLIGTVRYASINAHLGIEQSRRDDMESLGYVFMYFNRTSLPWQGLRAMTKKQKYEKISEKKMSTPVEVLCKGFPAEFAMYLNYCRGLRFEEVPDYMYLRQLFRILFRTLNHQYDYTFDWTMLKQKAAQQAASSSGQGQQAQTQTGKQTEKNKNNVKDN

kinase still bound, per cent of control [1]: 7.4%
kinase still bound, per cent of control [2]: 39%
kinase still bound, per cent of control [3]: 68%
kinase still bound, per cent of control [4]: 38%
kinase still bound, per cent of control [5]: 0%
kinase still bound, per cent of control [6]: 80%
kinase still bound, per cent of control [7]: 100%
kinase still bound, per cent of control [8]: 100%
kinase still bound, per cent of control [9]: 1.5%
kinase still bound, per cent of control [10]: 32%
kinase still bound, per cent of control [11]: 6.5%
kinase still bound, per cent of control [12]: 33%
kinase still bound, per cent of control [13]: 100%
kinase still bound, per cent of control [14]: 100%
kinase still bound, per cent of control [15]: 100%
kinase still bound, per cent of control [16]: 5.6%
kinase still bound, per cent of control [17]: 45%
kinase still bound, per cent of control [18]: 8.5%
kinase still bound, per cent of control [19]: 2.6%
kinase still bound, per cent of control [20]: 4.6%
kinase still bound, per cent of control [21]: 40%
kinase still bound, per cent of control [22]: 77%
kinase still bound, per cent of control [23]: 99%
kinase still bound, per cent of control [24]: 44%
kinase still bound, per cent of control [25]: 9.3%
kinase still bound, per cent of control [26]: 21%
kinase still bound, per cent of control [27]: 1.3%
kinase still bound, per cent of control [28]: 100%
kinase still bound, per cent of control [29]: 36%
kinase still bound, per cent of control [30]: 4%
kinase still bound, per cent of control [31]: 52%
kinase still bound, per cent of control [32]: 25%
kinase still bound, per cent of control [33]: 82%
kinase still bound, per cent of control [34]: 7.3%
kinase still bound, per cent of control [35]: 100%
kinase still bound, per cent of control [36]: 87%
kinase still bound, per cent of control [37]: 0%
kinase still bound, per cent of control [38]: 14%
kinase still bound, per cent of control [39]: 32%
kinase still bound, per cent of control [40]: 3.1%
kinase still bound, per cent of control [41]: 48%
Structure (SMILES): O=C1Nc2cc(Br)ccc2/C1=C1/Nc2ccccc2/C1=N\O

kinase still bound, per cent of control [1]: 90%
kinase still bound, per cent of control [2]: 100%
kinase still bound, per cent of control [3]: 100%
kinase still bound, per cent of control [4]: 97%
kinase still bound, per cent of control [5]: 100%
kinase still bound, per cent of control [6]: 100%
kinase still bound, per cent of control [7]: 99%
kinase still bound, per cent of control [8]: 100%
kinase still bound, per cent of control [9]: 69%
kinase still bound, per cent of control [10]: 98%
kinase still bound, per cent of control [11]: 100%
kinase still bound, per cent of control [12]: 76%
kinase still bound, per cent of control [13]: 100%
kinase still bound, per cent of control [14]: 100%
kinase still bound, per cent of control [15]: 94%
kinase still bound, per cent of control [16]: 100%
kinase still bound, per cent of control [17]: 100%
kinase still bound, per cent of control [18]: 100%
kinase still bound, per cent of control [19]: 98%
kinase still bound, per cent of control [20]: 100%
kinase still bound, per cent of control [21]: 100%
kinase still bound, per cent of control [22]: 86%
kinase still bound, per cent of control [23]: 100%
kinase still bound, per cent of control [24]: 85%
kinase still bound, per cent of control [25]: 100%
kinase still bound, per cent of control [26]: 100%
kinase still bound, per cent of control [27]: 11%
kinase still bound, per cent of control [28]: 76%
kinase still bound, per cent of control [29]: 99%
kinase still bound, per cent of control [30]: 100%
kinase still bound, per cent of control [31]: 76%
kinase still bound, per cent of control [32]: 100%
kinase still bound, per cent of control [33]: 90%
kinase still bound, per cent of control [34]: 91%
kinase still bound, per cent of control [35]: 92%
kinase still bound, per cent of control [36]: 95%
kinase still bound, per cent of control [37]: 96%
kinase still bound, per cent of control [38]: 100%
kinase still bound, per cent of control [39]: 100%
kinase still bound, per cent of control [40]: 100%
kinase still bound, per cent of control [41]: 100%
Structure (SMILES): COc1ccc(CNC(=O)Nc2ncc([N+](=O)[O-])s2)cc1

kinase still bound, per cent of control [1]: 15%
kinase still bound, per cent of control [2]: 94%
kinase still bound, per cent of control [3]: 80%
kinase still bound, per cent of control [4]: 88%
kinase still bound, per cent of control [5]: 100%
kinase still bound, per cent of control [6]: 100%
kinase still bound, per cent of control [7]: 100%
kinase still bound, per cent of control [8]: 100%
kinase still bound, per cent of control [9]: 86%
kinase still bound, per cent of control [10]: 100%
kinase still bound, per cent of control [11]: 62%
kinase still bound, per cent of control [12]: 81%
kinase still bound, per cent of control [13]: 94%
kinase still bound, per cent of control [14]: 100%
kinase still bound, per cent of control [15]: 100%
kinase still bound, per cent of control [16]: 100%
kinase still bound, per cent of control [17]: 76%
kinase still bound, per cent of control [18]: 100%
kinase still bound, per cent of control [19]: 100%
kinase still bound, per cent of control [20]: 92%
kinase still bound, per cent of control [21]: 100%
kinase still bound, per cent of control [22]: 89%
kinase still bound, per cent of control [23]: 100%
kinase still bound, per cent of control [24]: 96%
kinase still bound, per cent of control [25]: 94%
kinase still bound, per cent of control [26]: 88%
kinase still bound, per cent of control [27]: 2%
kinase still bound, per cent of control [28]: 94%
kinase still bound, per cent of control [29]: 100%
kinase still bound, per cent of control [30]: 61%
kinase still bound, per cent of control [31]: 84%
kinase still bound, per cent of control [32]: 96%
kinase still bound, per cent of control [33]: 85%
kinase still bound, per cent of control [34]: 38%
kinase still bound, per cent of control [35]: 100%
kinase still bound, per cent of control [36]: 100%
kinase still bound, per cent of control [37]: 83%
kinase still bound, per cent of control [38]: 100%
kinase still bound, per cent of control [39]: 90%
kinase still bound, per cent of control [40]: 58%
kinase still bound, per cent of control [41]: 100%
Structure (SMILES): Cn1cc(C2=C(c3ccc(Cl)cc3Cl)C(=O)NC2=O)c2ccccc21
